US11613556B2, “Oxysterols and methods of use thereof” (Sage Therapeutics, Inc., priority 2016, dated 2023)
Where two headings read alike, the source gives them in different places.

Columns and labels:
Assay type in all cases: cell-based
[1] = target: GluN1/GluN2A glutamate receptors (human GRIN1/GRIN2A) expressed in HEK293 cells (Homo sapiens (Human), UniProt Q05586+Q12879); assay: Whole-cell patch clamp of mammalian cells (Ionworks Barracuda), positive allosteric modulation, GluN1/GluN2A; conditions: for Emax: read-out: GluN2A PCA EMax (%)
GluN1/GluN2A glutamate receptors (human GRIN1/GRIN2A) expressed in HEK293 cells, sequence (Q12879 whole entry, looked up, other chains not shown): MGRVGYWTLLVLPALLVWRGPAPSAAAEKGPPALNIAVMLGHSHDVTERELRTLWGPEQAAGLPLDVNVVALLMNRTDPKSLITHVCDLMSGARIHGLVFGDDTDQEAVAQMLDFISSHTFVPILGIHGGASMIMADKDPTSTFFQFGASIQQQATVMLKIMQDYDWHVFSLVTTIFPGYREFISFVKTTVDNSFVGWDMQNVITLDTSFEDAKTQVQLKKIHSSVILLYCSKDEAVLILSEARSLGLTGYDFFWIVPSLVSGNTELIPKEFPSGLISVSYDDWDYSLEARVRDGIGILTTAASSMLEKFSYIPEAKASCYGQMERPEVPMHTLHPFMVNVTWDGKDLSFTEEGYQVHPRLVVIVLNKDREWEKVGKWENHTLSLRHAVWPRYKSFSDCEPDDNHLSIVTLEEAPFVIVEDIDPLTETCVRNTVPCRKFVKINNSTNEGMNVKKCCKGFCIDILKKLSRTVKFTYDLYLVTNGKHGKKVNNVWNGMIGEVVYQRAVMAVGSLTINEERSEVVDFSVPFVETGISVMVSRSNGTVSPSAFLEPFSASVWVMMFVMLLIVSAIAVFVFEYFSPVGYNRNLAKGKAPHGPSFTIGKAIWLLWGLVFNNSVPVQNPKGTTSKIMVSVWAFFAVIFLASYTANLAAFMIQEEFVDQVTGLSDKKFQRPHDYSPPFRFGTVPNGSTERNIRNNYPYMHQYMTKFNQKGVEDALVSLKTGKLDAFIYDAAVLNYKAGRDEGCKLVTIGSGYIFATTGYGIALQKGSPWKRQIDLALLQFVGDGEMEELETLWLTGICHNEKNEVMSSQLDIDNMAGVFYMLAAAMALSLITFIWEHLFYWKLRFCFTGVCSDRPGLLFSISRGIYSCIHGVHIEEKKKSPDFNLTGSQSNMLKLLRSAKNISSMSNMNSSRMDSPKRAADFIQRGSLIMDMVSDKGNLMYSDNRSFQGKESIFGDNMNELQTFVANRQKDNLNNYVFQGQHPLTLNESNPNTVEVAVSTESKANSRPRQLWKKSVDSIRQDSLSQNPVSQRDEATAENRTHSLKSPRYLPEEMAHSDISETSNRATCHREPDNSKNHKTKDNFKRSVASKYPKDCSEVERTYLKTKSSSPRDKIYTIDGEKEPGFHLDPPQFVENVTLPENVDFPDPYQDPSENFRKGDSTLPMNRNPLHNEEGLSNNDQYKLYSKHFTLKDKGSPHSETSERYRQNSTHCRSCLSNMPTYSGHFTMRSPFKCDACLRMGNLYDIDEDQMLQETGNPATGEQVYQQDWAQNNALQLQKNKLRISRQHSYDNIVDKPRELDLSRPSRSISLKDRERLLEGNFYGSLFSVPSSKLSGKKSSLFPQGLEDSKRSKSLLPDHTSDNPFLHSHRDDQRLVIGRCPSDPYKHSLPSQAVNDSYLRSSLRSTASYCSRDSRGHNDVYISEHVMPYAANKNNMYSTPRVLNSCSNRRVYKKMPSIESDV
Procedure: (§1) NMDA potentiation in mammalian cells which expressed NMDA receptors was assessed using the automatic patch-clamp system can be used determine the NAM activity of compounds as described below. An whole cell patch-clamp system can be used determine the PAM activity of compounds as described below.
(§2) The measurements were performed using Ion Works Barracuda platform following this procedure:
(§3) Electrophysiological Procedures: • a) Intracellular solution (mM): 50 mM CsCl, 90 mM CsF, 2 mM MgCl2, 5 mM EGTA, 10 mM HEPES. Adjust to pH 7.2 with CsOH. • b) Extracellular solution, HB-PS (composition in mM): NaCl, 137; KCl, 1.0; CaCl2, 5; HEPES, 10; Glucose, 10; pH adjusted to 7.4 with NaOH (refrigerated until use). • c) Holding potential: −70 mV, potential during agonist/PAM application: −40 mV.
(§4) Recording Procedure: • a) Extracellular buffer will be loaded into the PPC plate wells (11 μL per well). Cell suspension will be pipetted into the wells (9 μL per well) of the PPC planar electrode. • b) Whole-cell recording configuration will be established via patch perforation with membrane currents recorded by on-board patch clamp amplifiers. • c) Two recordings (scans) will be performed. First, during pre-application of test article alone (duration of pre-application—5 min) and second, during test articles and agonist (EC20 L-glutamate and 30 μM glycine) co-application to detect positive modulatory effects of the test article.
(§5) Test Article Administration: The first pre-application will consist of the addition of 20 μL of 2× concentrated test article solution and, second, of 20 μL of 1× concentrated test article and agonist at 10 μL/s (2 second total application time).
(§6) Potentiating Effect of Positive Allosteric Modulators (PAM) on the Channel
(§7) The maximal amplitude of the evoked currents are measured and defined as Peak Current Amplitude (PCA).

[2] = target: GluN2B glutamate receptors expressed in mammalian cells (Homo sapiens (Human), UniProt Q05586+Q13224); assay: Whole-cell patch clamp of mammalian cells (Ionworks Barracuda), positive allosteric modulation, GluN2B; conditions: for Emax: read-out: GluN2B PCA EMax (%)
GluN2B glutamate receptors expressed in mammalian cells, sequence (Q13224 27-1484, other chains not shown): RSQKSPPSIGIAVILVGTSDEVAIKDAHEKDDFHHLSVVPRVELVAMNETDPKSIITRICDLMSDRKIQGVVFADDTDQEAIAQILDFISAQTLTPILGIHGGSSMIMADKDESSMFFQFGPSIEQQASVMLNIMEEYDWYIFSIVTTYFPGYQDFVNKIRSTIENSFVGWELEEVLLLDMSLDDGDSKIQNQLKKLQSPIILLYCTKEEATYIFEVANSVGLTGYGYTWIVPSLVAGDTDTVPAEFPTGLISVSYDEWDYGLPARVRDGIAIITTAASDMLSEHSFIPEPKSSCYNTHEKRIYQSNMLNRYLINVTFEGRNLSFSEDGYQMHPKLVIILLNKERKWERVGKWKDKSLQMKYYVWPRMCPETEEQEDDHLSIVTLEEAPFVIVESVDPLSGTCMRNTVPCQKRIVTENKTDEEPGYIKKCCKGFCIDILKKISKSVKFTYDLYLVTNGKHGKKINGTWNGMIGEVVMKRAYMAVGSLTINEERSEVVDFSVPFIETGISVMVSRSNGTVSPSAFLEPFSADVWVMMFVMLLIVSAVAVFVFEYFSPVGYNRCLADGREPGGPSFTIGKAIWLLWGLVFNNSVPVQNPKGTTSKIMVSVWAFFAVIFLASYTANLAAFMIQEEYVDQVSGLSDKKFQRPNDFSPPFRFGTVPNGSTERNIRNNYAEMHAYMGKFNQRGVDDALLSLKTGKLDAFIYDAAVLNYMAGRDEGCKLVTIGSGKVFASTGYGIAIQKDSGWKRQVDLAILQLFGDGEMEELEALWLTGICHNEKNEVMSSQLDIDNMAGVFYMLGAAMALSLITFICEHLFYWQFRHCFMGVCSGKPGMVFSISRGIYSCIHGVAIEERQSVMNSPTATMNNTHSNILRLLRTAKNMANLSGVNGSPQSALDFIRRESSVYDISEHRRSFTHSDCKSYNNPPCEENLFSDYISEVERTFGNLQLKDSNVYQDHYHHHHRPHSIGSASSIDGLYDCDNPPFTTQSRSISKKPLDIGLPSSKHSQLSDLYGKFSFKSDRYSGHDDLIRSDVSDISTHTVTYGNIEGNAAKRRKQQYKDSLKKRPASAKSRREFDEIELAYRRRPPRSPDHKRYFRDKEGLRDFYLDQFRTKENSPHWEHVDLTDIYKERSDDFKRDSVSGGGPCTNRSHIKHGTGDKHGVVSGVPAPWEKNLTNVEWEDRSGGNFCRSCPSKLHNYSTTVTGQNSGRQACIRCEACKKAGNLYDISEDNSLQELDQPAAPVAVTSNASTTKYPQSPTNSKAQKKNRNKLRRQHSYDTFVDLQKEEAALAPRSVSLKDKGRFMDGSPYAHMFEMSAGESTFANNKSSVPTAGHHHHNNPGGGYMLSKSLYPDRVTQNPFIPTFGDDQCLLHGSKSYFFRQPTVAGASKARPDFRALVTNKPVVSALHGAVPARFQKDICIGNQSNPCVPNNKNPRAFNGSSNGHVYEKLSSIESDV
Procedure: as §1, §2, §3, §4, §5, §6, §7

[3] = target: glutamate-activated channels of the GRIN1/2A subtype stably transfected in HEK 293 cells (Homo sapiens (Human), UniProt Q05586+Q12879); assay: Automated patch-clamp system (QPatch HTX), percent potentiation at 1 μM; conditions: HEK293, 1 μM test compound, 300 μM NMDA with 8 μM glycine, HEK 293 GRIN1/2A, read-out: GluN2A PCA % potentiation at 1 μM
glutamate-activated channels of the GRIN1/2A subtype stably transfected in HEK 293 cells, sequence (Q12879 whole entry, looked up, other chains not shown): as the sequence (Q12879 whole entry, looked up, other chains not shown) above
Method in brief: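 Tetracycline-induced HEK 293 cells stably expressing human GRIN1/2A were whole-cell recorded on QPatch HTX in Mg-free bath solution at pH 7.4. Compound at 1.0 μM (0.1% DMSO) was co-applied with submaximal 300 μM NMDA plus 8 μM glycine, and percent potentiation was recorded.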

[4] = peak current amplitude, co-application with EC20 L-glutamate and 30 μM glycine, HEK293, read-out: GluN2A PCA EC50
[5] = peak current amplitude, co-application with EC20 L-glutamate and 30 μM glycine, HEK293
[6] = peak current amplitude, co-application with EC20 L-glutamate and 30 μM glycine, read-out: GluN2B PCA EC50
[7] = peak current amplitude, co-application with EC20 L-glutamate and 30 μM glycine

| Structure (SMILES) | EC50 [1, 4] [nM] | Emax [1, 5] [%] | EC50 [2] [nM] | Emax [2] [%] | activation at 1 µM [3] [%] | EC50 [1] [nM] | EC50 [2, 6] [nM] | Emax [2, 7] [%] |
| --- | --- | --- | --- | --- | --- | --- | --- | --- |
| CC[C@]1(O)CC[C@@]2(C)[C@@H](CC[C@@H]3[C@@H]2CC[C@]2(C)[C@@H]([C@H](C)[C@@H](O)CC4CCC(C)(C)CC4)CC[C@@H]32)C1 [Compound 4, (3S,5S,8R,9S,10S,13S,14S,17R)-17-((2S,3S)-4-(4,4-dimethylcyclohexyl)-3-hydroxybutan-2-yl)-3-ethyl-10,13-dimethylhexadecahydro-1H-cyclopenta[a]phenanthren-3-ol] | 1 to 100 | < 100 | > 1000 | < 100 | < -40 | – | – | – |
| CC[C@]1(O)CC[C@@]2(C)C(=CC[C@H]3[C@@H]4CC[C@H]([C@H](C)[C@H](O)CCC5CC5)[C@@]4(C)CC[C@@H]32)C1 [Compound 6, (3S,8S,9S,10R,13S,14S,17R)-17-((2S,3R)-5-cyclopropyl-3-hydroxypentan-2-yl)-3-ethyl-10,13-dimethyl-2,3,4,7,8,9,10,11,12,13,14,15,16,17-tetradecahydro-1H-cyclopenta[a]phenanthren-3-ol] | – | < 100 | – | – | -10 to 10 | > 1000 | > 1000 | < 100 |
| CC(C)CC[C@H](O)[C@@H](C)[C@H]1CC[C@H]2[C@@H]3CC[C@H]4C[C@@](C)(O)CC[C@]4(C)[C@H]3CC[C@]12C [Compound 8, (3S,5S,8R,9S,10S,13S,14S,17R)-17-((2S,3S)-3-hydroxy-6-methylheptan-2-yl)-3,10,13-trimethylhexadecahydro-1H-cyclopenta[a]phenanthren-3-ol] | – | < 100 | – | – | < -40 | > 1000 | > 1000 | < 100 |
| CC[C@]1(O)CC[C@@]2(C)C(=CC[C@H]3[C@@H]4CC[C@H]([C@H](C)[C@H](O)CC5CCC(C)(C)CC5)[C@@]4(C)CC[C@@H]32)C1 [Compound 12, (3S,8S,9S,10R,13S,14S,17R)-17-((2S,3R)-4-(4,4-dimethylcyclohexyl)-3-hydroxybutan-2-yl)-3-ethyl-10,13-dimethyl-2,3,4,7,8,9,10,11,12,13,14,15,16,17-tetradecahydro-1H-cyclopenta[a]phenanthren-3-ol] | – | < 100 | – | – | -10 to 10 | > 1000 | > 1000 | < 100 |
| CC[C@]1(O)CC[C@@]2(C)[C@@H](CC[C@@H]3[C@@H]2CC[C@]2(C)[C@@H]([C@H](C)[C@H](O)CC4CCC(C)(C)CC4)CC[C@@H]32)C1 [Compound 20, (3S,5S,8R,9S,10S,13S,14S,17R)-17-((2S,3R)-4-(4,4-dimethylcyclohexyl)-3-hydroxybutan-2-yl)-3-ethyl-10,13-dimethylhexadecahydro-1H-cyclopenta[a]phenanthren-3-ol] | > 1000 | < 100 | > 1000 | < 100 | -40 to -10 | – | – | – |
| CCC[C@H](O)[C@@H](C)[C@H]1CC[C@H]2[C@@H]3CC[C@@H]4C[C@](O)(CC)CC[C@]4(C)[C@H]3CC[C@]12C [Compound 23, (3S,5R,8R,9S,10S,13S,14S,17R)-3-ethyl-17-((2S,3S)-3-hydroxyhexan-2-yl)-10,13-dimethylhexadecahydro-1H-cyclopenta[a]phenanthren-3-ol] | – | < 100 | – | – | -40 to -10 | > 1000 | > 1000 | 100 to 500 |
| CC[C@]1(O)CC[C@@]2(C)[C@@H](CC[C@@H]3[C@@H]2CC[C@]2(C)[C@@H]([C@H](C)[C@@H](O)Cc4ccccc4)CC[C@@H]32)C1 [Compound 32, (3S,5S,8R,9S,10S,13S,14S,17R)-3-ethyl-17-((2S,3S)-3-hydroxy-4-phenylbutan-2-yl)-10,13-dimethylhexadecahydro-1H-cyclopenta[a]phenanthren-3-ol] | – | < 100 | – | – | -10 to 10 | > 1000 | > 1000 | < 100 |
